Test results reported in US12290521B2, “Methods and materials for identifying and treating BET inhibitor-resistant cancers” (Mayo Foundation for Medical Education and Research, priority 2018, dated 2025).

How the values were obtained:
C4-2 xenograft tumors = assay: Prostate cancer xenografts in NSG mice; assay type: in vivo; settings: SPOP-F133V C4-2 xenografts; JQ1 50 mg/kg i.p. 5 days a week, day 21
Procedure: 6-week-old NOD-SCID IL-2-receptor gamma null (NSG) mice were generated and randomly divided into different experimental groups as indicated. All mice were housed in standard conditions with a 12-hour light/dark cycle and access to food and water ad libitum. For BRD2/3/4 knockdown studies, C4-2 cells (5×10^6), infected with lentivirus expressing empty vector (EV) or HA-SPOP-F133V mutant in combination with control shRNA or BRD2/3/4-specific shRNA, were mixed with Matrigel (in 100 μL 1×PBS plus 100 μL Matrigel (BD Biosciences)) and injected s.c. into the right flank of mice. After xenografts reached the size of about 100 mm^3, vehicle (10% beta cyclodextrin) or JQ1 (Sigma-Aldrich) at 50 mg/kg body weight was administered by i.p. injection 5 days a week. For studies with tumors treated with JQ1 and AKT inhibitor GDC-0068, C4-2 cells (5×10^6) infected with lentivirus expressing empty vector (EV) or HA-SPOP-F133V mutant were mixed with Matrigel (in 100 μL 1×PBS plus 100 μL Matrigel (BD Biosciences)) and injected s.c. into the right flank of mice. […] Growth in tumor volume was measured in a blinded fashion using digital caliper, and tumor volumes were estimated using the formula (L×W2)/2, where L is length of tumor and W is width. The volumes of tumors were compared, and P values were determined by a two-tailed Student's t test. […]

BRD4 = assay: ChIP-seq and ChIP-qPCR of BRD4 binding in C4-2 cells; assay type: cell-based, human; settings: control and SPOP-F133V C4-2 cells; JQ1 1 μM, 24 hours
Procedure: ChIP was performed as described elsewhere (Boyer et al., Cell, 122:947-956 (2005)). ChIP-seq libraries were prepared using the methods as described elsewhere (Boyer et al., Cell, 122:947-956 (2005)), and high throughput sequencing was performed using the Illumina HiSeq2000 platforms. The data were analyzed using the following pipeline: ChIP-seq raw reads were aligned to the human reference genome (GRCh37/hg19) using Bowtie2 (2.2.9), and reads mapped to one or two locations were kept for further analysis. Peak calling was performed by MACS2 (2.1.1) with p-value threshold of 1e-5. BigWig files were generated for visualization with the UCSC genome browser or IGV. GREAT (bejerano.stanford.edu/great/public/html/) was used to assign peaks to their potential target genes (a peak-gene association was determined if the peak fell into 2 kb region centering on the transcription start site of the gene). The common BRD4 target genes induced by SPOP F133V and HA-BRD4 expression were determined independently in each of two biological repeat experiments. Raw and processed data were deposited into NCBI Gene Expression Omnibus with accession number GSE88872.
For ChIP-qPCR experiments, DNAs pulled down by antibodies or non-specific IgG were amplified by real-time PCR. […]

DU145 cells = assay: Cell proliferation (MTS assay); assay type: cell-based, human; settings: JQ1 2 μM
Procedure: Cell proliferation was measured by using the MTS assay (Promega). Prostate cancer cells (2,000 per well) were seeded in 96-well plates with 100 μL of culture medium. Each well was added with 20 μL of CellTiter 96R AQueous One Solution Reagent (Promega) and absorbance was measured in a microplate reader at 490 nm.
The cells then were treated with vehicle (DMSO), a CBP/p300 inhibitor (CPI-637; iCBP; 20 μM), or a BET inhibitor (JQ1; 2 μM) alone or a combination of CPI-637 and JQ1. After 72 hours, cells were subjected to measurement of cell growth by an MTS assay. In each cell type (EV and F133V), the OD value in each group was normalized by the value in the control (vehicle) group.

## Cc1sc2c(c1C)C(c1ccc(Cl)cc1)=N[C@@H](CC(=O)OC(C)(C)C)c1nnc(C)n1-2 [JQ1]
C4-2 xenograft tumors
  xenograft tumor growth: JQ1-resistance
BRD4
  BRD4 binding in the AR gene promoter: largely decreased
  BRD4 binding in the MYC gene enhancer: substantial reduction
DU145 cells; DUB3-knockdown DU145 cells versus control knockdown cells
  sensitivity of cell growth to JQ1: much more sensitive
DU145 cells; DUB3-overexpressing DU145 cells
  resistance of cell growth by DUB3 overexpression: conferred resistance
DU145 cells; SPOP F133V-expressing DU145 cells
  sensitivity of cell growth to JQ1: JQ1 resistance
DU145 cells; SPOP-F133V cells with DUB3 shRNA
  sensitivity of cell growth to JQ1 after DUB3 knockdown: sensitized
